Values of other authors, collected in patent US20240139257A1, “METHODS AND COMPOSITIONS FOR ALOPECIA TREATMENT USING FIBROBLASTS AND FIBROBLAST-DERIVED PRODUCTS” (FIGENE, LLC, priority 2021, published 2024).

Experiments:
IL-2 mRNA = details: scalp biopsies, AA patients, after successful DCP treatment
[1] = tested on: interferon (IFN)-gamma mRNA; details: scalp biopsies, AA patients, after successful DCP treatment; still above the constitutive level found in controls
IL-10 mRNA = details: scalp biopsies, AA patients, after successful DCP treatment
IL-8 mRNA = details: scalp biopsies, AA patients, after successful DCP treatment
[2] = tested on: tumor necrosis factor-alpha mRNA; details: scalp biopsies, AA patients, after successful DCP treatment

O=c1c(-c2ccccc2)c1-c1ccccc1 [DCP, diphenylcyclopropenone]
mRNA expression of IL-2 after DCP treatment (IL-2 mRNA): increased | Therapeutic benefit of topical immunotherapy in AA patients (alopecia areata (AA)): some therapeutic benefits | IFN-gamma expression after DCP treatment [1]: reduced | mRNA expression of IL-10 after DCP treatment (IL-10 mRNA): increased | mRNA expression of IL-8 after DCP treatment (IL-8 mRNA): increased | mRNA expression of tumor necrosis factor-alpha after DCP treatment [2]: increased
